{"source": "paper PMC5182151", "about": "(International journal of pharmaceutics, 2016)", "key": {"physchem": {"assay": "physchem", "format": "physicochemical"}, "[1]": {"assay": "Stability of VD3-TyroSphere formulations during storage", "format": "physicochemical", "details": "in Transcutol (1mg/ml), 2 months storing at room temperature"}, "[2]": {"details": "VD3 dispersion in water, UV light for 9.5h; ref Luo et al., 2012; cited from earlier work"}}, "data": [{"smiles": "C=C1CC[C@H](O)C/C1=C/C=C1\\CCC[C@]2(C)[C@@H]([C@H](C)CCCC(C)C)CC[C@@H]12", "note": "[VD3, cholecalciferol]", "values": [{"measurement": "half-life", "setting": "physchem", "value": 76, "unit": "h"}, {"measurement": "drug lost in first 24h exposure to UV light", "setting": "physchem; VD3 in methanol solution, 254 nm UV", "value": "~20", "unit": "%"}, {"measurement": "photodegradation rate constant (zero-order)", "setting": "physchem; VD3 in methanol, 254 nm UV", "value": -1.194, "unit": "µg/mL/h"}, {"measurement": "VD3 left after 134 h UV exposure", "setting": "physchem; methanol formulation, 254 nm UV", "value": 21, "unit": "%"}, {"measurement": "VD3 detected", "setting": "[1]", "value": 2, "unit": "%"}, {"measurement": "VD3 remained after UV exposure", "setting": "[2]", "value": "about 30%"}]}]}
